Measured values from US20260374739A1, “SMALL MOLECULAR WEIGHT CHEMICAL COMPOUND TO ANTAGONIZE EPH-EPHRIN TETRAMERIZATION AND INHIBIT BIDIRECTIONAL SIGNALING” (THE BOARD OF REGENTS OF THE UNIVERSITY OF TEXAS SYSTEM, priority 2022, published 2026).
“And” between values parts separate entries of the source, which are not always exact repeats. Equal values may be shown once. Read-outs that look alike come from different tables or passages of the source.

Tests used:
EphA3-EphrinA1 = biological target: T1, EphA3-EphrinA1 (Homo sapiens, UniProt P29320); assay: Octet, immobilized human EphA3 binding to human EphrinA1; details: for IC50: immobilized human EphA3, 50 nM soluble human EphrinA1
T1 sequence (P29320 21-541 limits assumed): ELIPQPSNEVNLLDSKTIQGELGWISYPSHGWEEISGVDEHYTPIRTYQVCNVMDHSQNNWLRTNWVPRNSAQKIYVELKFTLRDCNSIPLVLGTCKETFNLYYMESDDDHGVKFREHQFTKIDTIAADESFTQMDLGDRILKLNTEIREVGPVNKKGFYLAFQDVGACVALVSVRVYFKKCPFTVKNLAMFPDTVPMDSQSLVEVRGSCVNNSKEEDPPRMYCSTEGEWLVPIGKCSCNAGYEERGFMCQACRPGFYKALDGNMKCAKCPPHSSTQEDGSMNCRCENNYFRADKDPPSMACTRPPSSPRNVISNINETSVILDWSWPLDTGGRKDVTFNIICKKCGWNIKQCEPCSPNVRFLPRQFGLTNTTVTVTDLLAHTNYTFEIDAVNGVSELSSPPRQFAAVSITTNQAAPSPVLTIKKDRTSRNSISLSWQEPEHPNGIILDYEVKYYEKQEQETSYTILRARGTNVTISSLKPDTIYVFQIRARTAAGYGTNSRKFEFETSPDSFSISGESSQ
Protocol: (§1) The Octet system was used to probe the interactions of epitope-tagged human A class proteins, focusing on immobilized EphA3 binding to two of its cognate ligands, EphrinA1 and EphrinA5, as well as EphB2 binding to EphrinA5 (FIG. 27). […] Focusing on the dimerization-driven EphA3-EA5 interaction first (green sensorgram trace), which mimics what is disclosed above for EphB4-EB2, the initial binding of soluble EphrinA5 to the immobilized EphA3 is very fast and strong with a long and steep 84° slope of response that then quickly bends around 35 sec into the association step to form a more gradual tetramerization accumulation slope. […] However, again like the EphB4-EB2 interaction, once placed into dissociation, a significant fraction of the bound EA5 protein melts quickly and the off phase continues downward with a slow gradual decline in bound protein. Although the dissociation was for only 500 sec, the continued downward slope of the response indicates most of the bound EA5 protein would eventually melt off of the immobilized EphA3 protein. This is referred to as a classic dimerization-driven interaction, fast and strong initial binding in the association step but with most of the bound protein coming off in the dissociation due to lack of formation of stable tetramers. EphA3 interacts with EphrinA1 with totally different kinetics/dynamics (orange sensorgram trace). Here, the initial high 84° dimerization slope phase is extremely brief (5 sec) with the binding quickly snapping into a linear tetramerization accumulation phase with a 25° slope, and that once placed into dissociation step almost no bound protein melts, just the small amount that would represent dimer interactions falling off in the first few seconds after being placed into dissociation. […] EphB2 interacting with EA5 is similar to the EphA3-EA1 interaction, in that the association step is characterized by a very brief (5 sec) high 84° slope phase that quickly bends into a more gradual tetramer accumulation phase (blue sensorgram trace). […] The strong initial off phase of the EphB2-EA5 complexes in the dissociation represents both the melting of weak dimers and of the relatively weaker affinity tetramers formed by the cross A/B class EphB2-EA5 molecules.
(§2) While there is no effect of A20 on the initial 5 sec fast EphA3-EA1 dimer phase, there is a very strong effect of compound on tetramer accumulation. It was estimated that >70% of the EphA3-EA1 binding interaction can be attributed to the tetramer which is effectively disrupted by compound, with very little binding activity attributed to the dimer and more accurately the dimerization:tetramerization ratio of this interaction is 10:90 not 30:70. […] Since this is a dimerization-driven type interaction (dimerization:tetramerization ratio of here is 72:28), the overall effect of compound on this interaction is muted.

EphA3-EphrinA5 = biological target: T2, EphA3-EphrinA5 (Homo sapiens, UniProt P29320); assay: Octet, immobilized human EphA3 binding to human EphrinA5
T2 sequence (P29320 21-541 limits assumed): T1 sequence (P29320 21-541 limits assumed)
Protocol: as §1, §2

[1] = Human EphA3-EphrinA1, association, absolute, read-out: Absolute Association IC50
[2] = Human EphA3-EphrinA1, association, relative, read-out: Relative Association IC50
[3] = Human EphA3-EphrinA1, dissociation, absolute, read-out: Absolute Dissociation IC50
[4] = Human EphA3-EphrinA1, dissociation, relative, read-out: Relative Dissociation IC50
[5] = Human EphA3-EphrinA5, immobilized human EphA3, 50 nM soluble human EphrinA5, association, absolute, read-out: Absolute Association IC50
[6] = Human EphA3-EphrinA5, immobilized human EphA3, 50 nM soluble human EphrinA5, association, relative, read-out: Relative Association IC50
[7] = Human EphA3-EphrinA5, immobilized human EphA3, 50 nM soluble human EphrinA5, dissociation, absolute, read-out: Absolute Dissociation IC50
[8] = Absolute Association IC50, Human EphA3-EphrinA1, association, absolute
[9] = Human EphA3-EphrinA5, immobilized human EphA3, 50 nM soluble human EphrinA5, dissociation, relative, read-out: Relative Dissociation IC50
[10] = Relative Association IC50, Human EphA3-EphrinA1, association, relative
[11] = Relative Dissociation IC50, Human EphA3-EphrinA1, dissociation, relative

Compound	IC50 (EphA3-EphrinA1; [1])	IC50 (EphA3-EphrinA1; [2])	IC50 (EphA3-EphrinA1; [3])	IC50 (EphA3-EphrinA1; [4])	IC50 (EphA3-EphrinA5) [µM]	IC50 (EphA3-EphrinA5; [5]) [µM]	IC50 (EphA3-EphrinA5; [6]) [µM]	IC50 (EphA3-EphrinA5; [7]) [µM]	IC50 (EphA3-EphrinA1; [8]) [µM]	IC50 (EphA3-EphrinA1; Absolute Dissociation IC50, Human EphA3-EphrinA1, dissociation, absolute) [µM]	IC50 (EphA3-EphrinA5; [9]) [µM]	IC50 (EphA3-EphrinA1; [10]) [µM]	IC50 (EphA3-EphrinA1; [11]) [µM]	inhibition at 1 µM (EphA3-EphrinA1; 1 μM, read-out: tetramers lost) [%]	loss of tetramer formation (EphA3-EphrinA1; 100 μM)	loss of tetramer accumulation (EphA3-EphrinA5; 1 μM)
Oc1c(I)cc(CN2CCOCC2)c2cccnc12 [Compound 8, 4-((8-hydroxy-7-iodoquinolin-1-ium-5-yl)methyl)morpholin-4-ium chloride]	0.45 µM and 1.45 µM	0.19 µM and 0.71 µM	1.2 µM and 1.52 µM	0.46 µM and 1.14 µM	0.36	> 1.6	0.5	0.48	–	–	–	–	–	–	–	–
O=[N+]([O-])c1cc(CN2CCOCC2)c2cccnc2c1O [Compound 10, 4-((8-hydroxy-7-nitroquinolin-1-ium-5-yl)methyl)morpholin-4-ium chloride]	–	8.3 µM	–	4.23 µM	4.48	100	2.49	–	14	6.3	0.79	–	–	–	–	–
Oc1ccc(CN2CCOCC2)c2cccnc12 [Compound 1, 5-(morpholinomethyl)quinolin-8-ol]	8.24 µM	6.29 µM	6.73 µM	2.39 µM	3.22	100	< 1	–	–	–	1.24	–	–	–	–	–
Oc1c(Br)cc(CN2CCOCC2)c2cccnc12 [Compound 6, 4-((7-bromo-8-hydroxyquinolin-1-ium-5-yl)methyl)morpholin-4-ium chloride]	–	–	1.99 µM	–	0.37	100	0.52	0.52	–	–	–	7.24	–	–	–	–
Oc1ccc(CN2CCN(Cc3ccc(C(F)(F)F)cc3)CC2)c2cccnc12 [Compound 48, 5-((4-(4-(trifluoromethyl)benzyl)piperazin-1-yl)methyl)quinolin-8-ol]	100 µM	100 µM	9.4 µM	–	4.33	100	3.25	6.24	–	–	–	–	5.3	–	–	–
Oc1c(Cl)cc(CN2CCOCC2)c2cccnc12 [Compound 4, 4-((7-chloro-8-hydroxyquinolin-1-ium-5-yl)methyl)morpholin-4-ium chloride]	–	–	0.9 µM	0.9 µM	0.54	12.9	1	0.62	1.84	–	–	0.89	–	–	–	–
O=S1(=O)CCN(Cc2ccc(O)c3ncccc23)CC1 [Compound 15, 4-((8-hydroxyquinolin-1-ium-5-yl)methyl)thiomorpholin-4-ium 1,1-dioxide chloride]	100 µM	–	29.3 µM	–	2.1	100	> 1	–	–	–	< 1	12.3	6	–	–	–
Oc1c(Br)cc(CN2CCOCC2)c2cccnc12 [Compound 5, 7-bromo-5-(morpholinomethyl)quinolin-8-ol]	–	–	–	–	–	–	–	–	–	–	–	–	–	~50	near complete loss of tetramer formation	striking maximized loss of tetramer accumulation
